Reference: article PMC6757277, “Structural Basis of Glycerophosphodiester Recognition by the Mycobacterium tuberculosis Substrate-Binding Protein UgpB” (ACS Chemical Biology, 2019)

Molecular target: Mtb UgpB (Mycobacterium tuberculosis, UniProt P71619)
Test: biochemical

Mtb UgpB, sequence (P71619 entry or part of it): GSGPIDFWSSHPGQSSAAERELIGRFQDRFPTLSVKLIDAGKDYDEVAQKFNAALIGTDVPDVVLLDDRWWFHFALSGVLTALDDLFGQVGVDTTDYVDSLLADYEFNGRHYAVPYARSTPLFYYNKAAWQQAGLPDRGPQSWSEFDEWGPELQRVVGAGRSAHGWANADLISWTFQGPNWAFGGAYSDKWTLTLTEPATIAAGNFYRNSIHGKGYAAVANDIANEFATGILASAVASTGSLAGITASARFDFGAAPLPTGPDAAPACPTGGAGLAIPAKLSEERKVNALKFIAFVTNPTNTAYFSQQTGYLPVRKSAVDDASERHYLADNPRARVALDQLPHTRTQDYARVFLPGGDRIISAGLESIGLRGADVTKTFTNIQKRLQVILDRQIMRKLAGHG

SMILES | Kd
O=P(O)(O)O[C@H]1[C@H](O)[C@@H](O)[C@H](OP(=O)(O)OC[C@H](O)CO)[C@H](O)[C@@H]1O [GPI4P, glycerophosphoinositol-4-phosphate] | 290 ± 54.1 µM
O=P(O)(OC[C@H](O)CO)O[C@@H]1[C@H](O)[C@H](O)[C@@H](O)[C@H](O)[C@H]1O [GPI, glycerophosphoinositol] | 1050 ± 313 µM
